The record followed here is US20240158392A1 (Janssen Biotech, Inc., priority 2021, published 2024).

The target of this experiment is SIK2 (Homo sapiens, UniProt Q9H0K1). Put plainly: SIK2 Enzymatic Assay High Version 2 (High ATP). It counts as biochemical. As to conditions: enzyme 6 nM, 6 mM ATP and 400 μM HDAC5tide (each 2× final concentration); 30 minutes pre-incubation, 2 hours; ADP-Glo Max luminescence; read-out: SIK2 high ATP IC50 (μM) (Test Example 2). The gist of the method:
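At room temperature, enzyme (6 nM, 2× final) was preincubated with compound for 30 min, then 6 mM ATP and 400 μM HDAC5tide (both 2× final) were added for 2 h. ADP formed was measured by ADP-Glo Max (2 h reagent, 1 h detection) using luminescence.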

Chain of SIK2 (Q9H0K1 whole entry, species assumed): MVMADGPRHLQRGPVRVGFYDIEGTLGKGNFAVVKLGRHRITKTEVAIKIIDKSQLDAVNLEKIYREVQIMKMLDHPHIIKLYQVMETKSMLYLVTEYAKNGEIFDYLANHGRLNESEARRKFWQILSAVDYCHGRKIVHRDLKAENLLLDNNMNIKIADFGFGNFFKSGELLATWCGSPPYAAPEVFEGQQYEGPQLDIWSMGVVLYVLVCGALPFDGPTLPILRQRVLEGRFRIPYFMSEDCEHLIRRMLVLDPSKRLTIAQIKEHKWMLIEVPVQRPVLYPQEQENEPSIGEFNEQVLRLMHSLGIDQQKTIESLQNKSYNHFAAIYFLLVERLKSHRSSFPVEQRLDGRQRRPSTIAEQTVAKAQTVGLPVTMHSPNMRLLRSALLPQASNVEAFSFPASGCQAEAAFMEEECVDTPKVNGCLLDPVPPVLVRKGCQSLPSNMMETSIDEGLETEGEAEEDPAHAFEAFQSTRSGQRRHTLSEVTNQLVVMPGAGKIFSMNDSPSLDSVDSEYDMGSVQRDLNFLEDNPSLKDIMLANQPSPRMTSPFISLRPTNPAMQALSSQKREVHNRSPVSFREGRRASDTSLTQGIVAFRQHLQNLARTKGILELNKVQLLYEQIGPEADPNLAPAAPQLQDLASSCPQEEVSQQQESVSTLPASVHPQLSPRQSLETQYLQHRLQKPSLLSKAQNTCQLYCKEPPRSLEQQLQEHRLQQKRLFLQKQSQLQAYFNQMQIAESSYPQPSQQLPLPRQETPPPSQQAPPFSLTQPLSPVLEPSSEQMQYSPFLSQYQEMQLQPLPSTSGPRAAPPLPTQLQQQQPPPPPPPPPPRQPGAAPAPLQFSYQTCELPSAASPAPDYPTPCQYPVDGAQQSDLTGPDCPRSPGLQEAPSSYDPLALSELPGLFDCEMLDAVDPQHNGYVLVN

Take `CC#Cc1cc(-c2ccn3nc(NC(=O)C4CC4)cc3c2)c(O[C@H]2CCNC2)cn1` [Example 280, N-[5-[2-prop-1-ynyl-5-[(3S)-pyrrolidin-3-yl]oxy-4-pyridyl]pyrazolo[1,5-a]pyridin-2-yl]cyclopropanecarboxamide]: the half-inhibitory concentration (IC50) worked out at 0.0032 µM. Then `CC#Cc1cc(-c2ccn3nc(NC(=O)C4CC4)cc3c2)c(O[C@@H]2CNC[C@@H]2F)cn1` [Example 281, N-[5-[5-[(3R,4S)-4-fluoropyrrolidin-3-yl]oxy-2-prop-1-ynyl-4-pyridyl]pyrazolo[1,5-a]pyridin-2-yl]cyclopropanecarboxamide], with 0.00102 µM. Then `Cc1cc(-c2ccn3nc(Nc4cc(C)c(=O)n(CC(C)C)n4)cc3c2)c(OCC(C)(C)O)cn1` [Example 282, 6-[[5-[5-(2-hydroxy-2-methyl-propoxy)-2-methyl-4-pyridyl]pyrazolo[1,5-a]pyridin-2-yl]amino]-2-isobutyl-4-methyl-pyridazin-3-one], with 0.00608 µM; and `Cc1cc(-c2ccn3nc(Nc4cc(C)c(=O)n(CCOC(F)F)n4)cc3c2)c(O[C@H]2CC[C@H](O)CC2)cn1` [Example 283, 2-[2-(difluoromethoxy)ethyl]-6-[[5-[5-(4-hydroxycyclohexoxy)-2-methyl-4-pyridyl]pyrazolo[1,5-a]pyridin-2-yl]amino]-4-methyl-pyridazin-3-one], with 0.00429 µM. Then `Cc1cc(-c2ccn3nc(Nc4cc(C)c(=O)n(CCOC(F)F)n4)cc3c2)c(OCC(C)(C)O)cn1` [Example 284, 2-[2-(difluoromethoxy)ethyl]-6-[[5-[5-(2-hydroxy-2-methyl-propoxy)-2-methyl-4-pyridyl]pyrazolo[1,5-a]pyridin-2-yl]amino]-4-methyl-pyridazin-3-one], with 0.0188 µM; and `Cc1cc(-c2ccn3nc(Nc4cc(C)nc(N5CCCC5)n4)cc3c2)c(OCC(C)(C)O)cn1` [Example 285, 2-methyl-1-[[6-methyl-4-[2-[(6-methyl-2-pyrrolidin-1-yl-pyrimidin-4-yl)amino]pyrazolo[1,5-a]pyridin-5-yl]-3-pyridyl]oxy]propan-2-ol], with 0.0109 µM; and `Cc1cc(-c2ccn3nc(Nc4cc(C)nc(N5CCOCC5)n4)cc3c2)c(OCC(C)(C)O)cn1` [Example 286, 2-methyl-1-[[6-methyl-4-[2-[(6-methyl-2-morpholino-pyrimidin-4-yl)amino]pyrazolo[1,5-a]pyridin-5-yl]-3-pyridyl]oxy]propan-2-ol], with 0.0166 µM. On to `Cc1cc(-c2ccn3nc(Nc4cc(C)nc(N5CCCC5)n4)cc3c2)c(O[C@H]2CC[C@H](O)CC2)cn1` [Example 287, 4-[[6-methyl-4-[2-[(6-methyl-2-pyrrolidin-1-yl-pyrimidin-4-yl)amino]pyrazolo[1,5-a]pyridin-5-yl]-3-pyridyl]oxy]cyclohexanol], for which the half-maximal inhibitory concentration (IC50) came to 0.00144 µM. Then `Cc1cc(-c2ccn3nc(Nc4cc(C)nc(N5CCOCC5)n4)cc3c2)c(O[C@H]2CC[C@H](O)CC2)cn1` [Example 288, 4-[[6-methyl-4-[2-[(6-methyl-2-morpholino-pyrimidin-4-yl)amino]pyrazolo[1,5-a]pyridin-5-yl]-3-pyridyl]oxy]cyclohexanol], with 0.00696 µM; and `Cc1cc(-c2ccn3nc(Nc4cnc5cc[nH]c5n4)cc3c2)c(O[C@H]2CC[C@H](O)CC2)cn1` [Example 289, 4-[[6-methyl-4-[2-(5H-pyrrolo[2,3-b]pyrazin-3-ylamino)pyrazolo[1,5-a]pyridin-5-yl]-3-pyridyl]oxy]cyclohexanol], with 0.00114 µM. Then `Cc1cc(-c2ccn3nc(Nc4cnc5cc[nH]c5n4)cc3c2)c(OCC(C)(C)O)cn1` [Example 291, 2-methyl-1-[[6-methyl-4-[2-(5H-pyrrolo[2,3-b]pyrazin-3-ylamino)pyrazolo[1,5-a]pyridin-5-yl]-3-pyridyl]oxy]propan-2-ol], with 0.00809 µM. Then `Cc1cc(-c2ccn3nc(Nc4nn(C)c5ncccc45)cc3c2)c(OCC(C)(C)O)cn1` [Example 292, 2-methyl-1-[[6-methyl-4-[2-[(1-methylpyrazolo[3,4-b]pyridin-3-yl)amino]pyrazolo[1,5-a]pyridin-5-yl]-3-pyridyl]oxy]propan-2-ol], with 0.0187 µM; and `CCn1nc(Nc2cc3cc(-c4cc(C)ncc4OC[C@H]4OCC[C@@H]4O)ccn3n2)cc(C)c1=O` [Example 293, 2-ethyl-6-[[5-[5-[[(2R,3S)-3-hydroxytetrahydrofuran-2-yl]methoxy]-2-methyl-4-pyridyl]pyrazolo[1,5-a]pyridin-2-yl]amino]-4-methyl-pyridazin-3-one], with below 0.000847 µM; and `Cc1cc(-c2ccn3nc(Nc4cc(C)nc(N5CCOCC5)n4)cc3c2)c(OC[C@H]2OCC[C@@H]2O)cn1` [Example 294, (2R,3S)-2-[[6-methyl-4-[2-[(6-methyl-2-morpholino-pyrimidin-4-yl)amino]pyrazolo[1,5-a]pyridin-5-yl]-3-pyridyl]oxymethyl]tetrahydrofuran-3-ol], with 0.0138 µM. In the case of `Cc1cc(-c2ccn3nc(Nc4cnc(C(F)F)cn4)cc3c2)c(OC[C@H]2OCC[C@@H]2O)cn1` [Example 295, (2R,3S)-2-[[4-[2-[[5-(difluoromethyl)pyrazin-2-yl]amino]pyrazolo[1,5-a]pyridin-5-yl]-6-methyl-3-pyridyl]oxymethyl]tetrahydrofuran-3-ol], the half-inhibitory concentration (IC50) came to 0.0176 µM. `Cc1cc(-c2ccn3nc(Nc4cc(C)c(=O)n(CCOC(F)F)n4)cc3c2)c(OC[C@H]2OCC[C@@H]2O)cn1` [Example 296, 2-[2-(difluoromethoxy)ethyl]-6-[[5-[5-[[(2R,3S)-3-hydroxytetrahydrofuran-2-yl]methoxy]-2-methyl-4-pyridyl]pyrazolo[1,5-a]pyridin-2-yl]amino]-4-methyl-pyridazin-3-one]: the IC50 was 0.00698 µM.

As to `Cc1cc(-c2ccn3nc(Nc4cncc(C)n4)cc3c2)c(OC[C@H]2OCC[C@@H]2O)cn1` [Example 297, (2R,3S)-2-[[6-methyl-4-[2-[(6-methylpyrazin-2-yl)amino]pyrazolo[1,5-a]pyridin-5-yl]-3-pyridyl]oxymethyl]tetrahydrofuran-3-ol], the half-maximal inhibitory concentration (IC50) turned out to be 0.00781 µM. Take `Cc1cc(-c2ccn3nc(Nc4cc(C)nc(C(C)(C)C)n4)cc3c2)c(OC[C@H]2OCC[C@@H]2O)cn1` [Example 298, (2R,3S)-2-[[4-[2-[(2-tert-butyl-6-methyl-pyrimidin-4-yl)amino]pyrazolo[1,5-a]pyridin-5-yl]-6-methyl-3-pyridyl]oxymethyl]tetrahydrofuran-3-ol]: the half-inhibitory concentration (IC50) was determined as 0.00667 µM. Then `Cc1cc(-c2ccn3nc(Nc4nn(C)c5ccccc45)cc3c2)c(OC[C@H]2OCC[C@@H]2O)cn1` [Example 299, (2R,3S)-2-[[6-methyl-4-[2-[(1-methylindazol-3-yl)amino]pyrazolo[1,5-a]pyridin-5-yl]-3-pyridyl]oxymethyl]tetrahydrofuran-3-ol], with 0.00675 µM. Then `CC#Cc1cc(-c2ccn3nc(Nc4cnn(C)c4)cc3c2)c(OC[C@H]2OCC[C@@H]2O)cn1` [Example 300, (2R,3S)-2-[[4-[2-[(1-methylpyrazol-4-yl)amino]pyrazolo[1,5-a]pyridin-5-yl]-6-prop-1-ynyl-3-pyridyl]oxymethyl]tetrahydrofuran-3-ol], with 0.00639 µM; and `CC#Cc1cc(-c2ccn3nc(Nc4ccn(C)n4)cc3c2)c(OC[C@H]2OCC[C@@H]2O)cn1` [Example 301, (2R,3S)-2-[[4-[2-[(1-methylpyrazol-3-yl)amino]pyrazolo[1,5-a]pyridin-5-yl]-6-prop-1-ynyl-3-pyridyl]oxymethyl]tetrahydrofuran-3-ol], with 0.00773 µM; and `CC#Cc1cc(-c2ccn3nc(Nc4cc(C)nc(C)n4)cc3c2)c(OC[C@]23CN[C@H](CO2)C3)cn1` [Example 302, N-(2,6-dimethylpyrimidin-4-yl)-5-[5-[[(1S,4S)-5-oxa-2-azabicyclo[2.2.1]heptan-4-yl]methoxy]-2-prop-1-ynyl-4-pyridyl]pyrazolo[1,5-a]pyridin-2-amine], with 0.000975 µM. Then `Cc1cc(Nc2cc3cc(-c4cc(Cl)ncc4OC[C@]45CN[C@H](CO4)C5)ccn3n2)nc(C)n1` [Example 303, 5-[2-chloro-5-[[(1S,4S)-5-oxa-2-azabicyclo[2.2.1]heptan-4-yl]methoxy]-4-pyridyl]-N-(2,6-dimethylpyrimidin-4-yl)pyrazolo[1,5-a]pyridin-2-amine], with 0.000971 µM. On to `Cc1cc(-c2ccn3nc(Nc4cc(C)c(=O)n(C)n4)cc3c2)c(O[C@H]2CC[C@@H](S(C)(=O)=O)CC2)cn1` [Example 305, 2,4-dimethyl-6-((5-(2-methyl-5-(((1s,4s)-4-(methylsulfonyl)cyclohexyl)oxy)pyridin-4-yl)pyrazolo[1,5-a]pyridin-2-yl)amino)pyridazin-3(2H)-one], for which the concentration for half-maximal inhibition (IC50) stood at 0.00117 µM. As for `Cc1cc(-c2ccn3nc(Nc4ccc5cc[nH]c5n4)cc3c2)c(OCC(C)(C)C#N)cn1` [Example 307, 2,2-dimethyl-3-[[6-methyl-4-[2-(1H-pyrrolo[2,3-b]pyridin-6-ylamino)pyrazolo[1,5-a]pyridin-5-yl]-3-pyridyl]oxy]propanenitrile], the IC50 turned out to be 0.00132 µM.

Consider `Cc1cc(-c2ccn3nc(Nc4ccc5nccn5n4)cc3c2)c(OCC(C)(C)C#N)cn1` [Example 308, 3-[[4-[2-(imidazo[1,2-b]pyridazin-6-ylamino)pyrazolo[1,5-a]pyridin-5-yl]-6-methyl-3-pyridyl]oxy]-2,2-dimethyl-propanenitrile], for which the 50% inhibitory concentration (IC50) amounted to 0.00171 µM. Then `CNc1nc(C)cc(Nc2cc3cc(-c4cc(C)ncc4OCC(C)(C)C#N)ccn3n2)n1` [Example 309, 2,2-dimethyl-3-[[6-methyl-4-[2-[[6-methyl-2-(methylamino)pyrimidin-4-yl]amino]pyrazolo[1,5-a]pyridin-5-yl]-3-pyridyl]oxy]propanenitrile], with below 0.000847 µM; and `Cc1cc(-c2ccn3nc(Nc4cc(C)nc(C5CC5)n4)cc3c2)c(OCC(C)(C)C#N)cn1` [Example 310, 3-[[4-[2-[(2-cyclopropyl-6-methyl-pyrimidin-4-yl)amino]pyrazolo[1,5-a]pyridin-5-yl]-6-methyl-3-pyridyl]oxy]-2,2-dimethyl-propanenitrile], with below 0.000847 µM.
